According to PMC5478727, “A Novel Small Molecule GDNF Receptor RET Agonist, BT13, Promotes Neurite Growth from Sensory Neurons in Vitro and Attenuates Experimental Neuropathy in the Rat” (Frontiers in Pharmacology, 2017):

Columns and labels:
[1] = biological target: T1, Protein Serine/Threonine Phosphatase, PP2A (Homo sapiens, UniProt P67775); experiment: CEREP Protein Serine/Threonine Phosphatase, PP2A; type: biochemical
T1 construct: purchased CEREP (contract assay) 3953

[2] = biological target: COMT (catechol-O-methyl transferase); experiment: CEREP COMT (catechol-O-methyl transferase); type: biochemical; details: reference compound; Cat. No. 0457
TrkA = TrkA phosphorylation assay in MG87TrkA cells; type: cell-based; details: BT13 10–100 μM, NGF positive control
Procedure: (§1) MG87RET, MG87TrkA, or MG87TrkB were plated on 35 mm tissue culture dishes 1–2 days before the experiment to achieve 90–95% of confluency of the cells at the day of stimulation with tested substances. If necessary, cells were transfected with 4 μg/well of GFRα1-, GFRα3-, or green fluorescent protein (GFP)-expressing plasmid using Lipofectamine 2000 (Invitrogen) for DNA delivery as described by manufacturer. Before the experiment cells were starved in serum-free DMEM containing 15 mM HEPES, pH 7.2 and 1% DMSO for 4 h and stimulated with BT13 or neurotrophic factors. Then cells were washed once with ice-cold PBS containing 1 mM Na3VO4 and 1 mM NaF and lysed on ice in 1 ml per well of RIPA-modified buffer (50 mM Tris-HCl, pH 7.4, 150 mM NaCl, 1 mM EDTA, 1% NP-40, 1% TX-100, 10% glycerol, EDTA-free protease inhibitor cocktail (Roche), 1 mM Na3VO4, 2.5 mg/ml of sodium deoxycholate, 1 mM NaF). Plates were incubated at +4°C on the horizontal shaker for 30 min with vigorous shaking. Afterwards, 80–100 μl aliquot was taken from each well to prepare whole cell lysates. This aliquot was mixed with equal volume of 2x Laemmli loading buffer (4% SDS, 20% glycerol, 10% 2-mercaptoethanol, 0.004% bromphenol blue, 0.125 M Tris HCl, pH 6.8) and boiled for 10 min at 100°C. Remaining cell lysates were used for immunoprecipitation of RET or Trk receptors. […]

[3] = system: Akt and Erk phosphorylation in MG87TrkA; experiment: Erk1/2 and Akt phosphorylation assay in MG87TrkA cells; type: cell-based, murine; details: BT13 10–100 μM, NGF positive control
Procedure: as §1

[4] = system: adult rat lumbar DRG sensory neurons; experiment: Neurite outgrowth from cultured DRG neurons; type: cell-based; details: NGF 10 ng/ml
Procedure: Cultured lumbar DRG (L3–L5) neurons were prepared using a published method (O'Mullane et al., [2013]). After plating onto poly-L-ornithine (5 μg/ml)/laminin (5 μg/ml) coated coverslips for 1 h, DRG neurons were cultured for 24–30 h in fresh Neurobasal A/B27. GFLs, BT13, NGF, and vehicle control were added at the start of this period for a 24–30 h treatment, except when preceded by pre-treatment (1 h) with inhibitors (50 μM LY294002; 2 μM SU6656, […]; Biomol Research Laboratories, Plymouth Meeting, PA, USA). DRG neurons were then fixed (4% paraformaldehyde) and processed for immunocytochemistry with 1:200 Mouse anti-β III tubulin/AlexaFluor 594 (Sigma-Aldrich Cat# T8660 RRID:AB_477590) and 1:5,000 rabbit anti-calcitonin gene-related peptide/AlexaFluor 488 (Sigma-Aldrich Cat# C8198 RRID:AB_259091) and DAPI for nuclear staining (0.5 μg/ml, Molecular Probes). Image analysis of multichannel 12 bit Zeiss .ZVI or .TIF files (captured with a Zeiss Imager.M1/MRm camera/Zen software; Carl Zeiss Australia, North Ryde, NSW, Australia) was then performed by a researcher blinded to the experimental condition. Neurite initiation was measured by a single parameter (proportion of neurons with neurites longer than the soma diameter). Neurite elongation was measured by batch processing (HCA-Vision software; CSIRO Mathematical and Information Sciences, North Ryde, NSW, Australia) to obtain four parameters—Root number: number of primary neurites; Maximum length: length of longest neurite; Branch points: number of neurite branch points; and Total length: sum of neurite lengths (Kalous and Keast, [2010]; Kalous et al., [2012]). The number of neurons of each immunocytochemical class counted on each coverslip (technical replicates) was 50 for neurite initiation and 20 for neurite elongation. A minimum of three cultures from different rats (biological replicates) were analyzed for each treatment group.

TrkB = biological target: T2, TrkB (Rattus norvegicus, UniProt Q63604); experiment: TrkB phosphorylation assay in MG87TrkB cells; type: cell-based; details: BT13 10–100 μM, BDNF positive control
T2 construct: expressed in transfected cells; host or cells: MG87 murine fibroblasts (MG87TrkB)
T2 sequence (Q63604 32-821): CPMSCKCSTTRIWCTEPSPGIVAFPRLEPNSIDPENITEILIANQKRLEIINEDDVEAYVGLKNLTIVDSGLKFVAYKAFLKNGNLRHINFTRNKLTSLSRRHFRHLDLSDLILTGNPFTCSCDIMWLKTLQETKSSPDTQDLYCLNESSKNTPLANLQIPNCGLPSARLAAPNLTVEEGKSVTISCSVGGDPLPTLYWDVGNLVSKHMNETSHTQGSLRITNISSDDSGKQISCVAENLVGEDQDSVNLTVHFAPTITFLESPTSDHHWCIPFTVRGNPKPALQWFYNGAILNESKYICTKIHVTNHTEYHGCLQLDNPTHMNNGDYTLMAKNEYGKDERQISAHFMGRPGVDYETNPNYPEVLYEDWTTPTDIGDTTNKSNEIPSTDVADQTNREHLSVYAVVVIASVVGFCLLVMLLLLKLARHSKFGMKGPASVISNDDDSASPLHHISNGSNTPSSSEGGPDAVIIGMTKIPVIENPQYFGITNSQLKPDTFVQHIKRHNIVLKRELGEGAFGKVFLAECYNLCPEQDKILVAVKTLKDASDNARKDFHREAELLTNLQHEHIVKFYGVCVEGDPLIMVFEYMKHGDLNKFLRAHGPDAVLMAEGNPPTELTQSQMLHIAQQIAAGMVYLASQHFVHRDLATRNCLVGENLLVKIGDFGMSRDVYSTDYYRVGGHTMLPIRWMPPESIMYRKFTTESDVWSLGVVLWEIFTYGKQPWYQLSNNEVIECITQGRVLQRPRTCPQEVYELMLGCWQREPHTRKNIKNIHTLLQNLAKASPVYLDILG
Procedure: as §1

[5] = system: Akt and Erk phosphorylation in MG87TrkB; experiment: Erk1/2 and Akt phosphorylation assay in MG87TrkB cells; type: cell-based, murine; details: BT13 10–100 μM, BDNF positive control
Procedure: as §1

[6] = CGRP-positive neurons, vs control, BT13 100 ng/ml

T1 sequence (P67775 whole entry): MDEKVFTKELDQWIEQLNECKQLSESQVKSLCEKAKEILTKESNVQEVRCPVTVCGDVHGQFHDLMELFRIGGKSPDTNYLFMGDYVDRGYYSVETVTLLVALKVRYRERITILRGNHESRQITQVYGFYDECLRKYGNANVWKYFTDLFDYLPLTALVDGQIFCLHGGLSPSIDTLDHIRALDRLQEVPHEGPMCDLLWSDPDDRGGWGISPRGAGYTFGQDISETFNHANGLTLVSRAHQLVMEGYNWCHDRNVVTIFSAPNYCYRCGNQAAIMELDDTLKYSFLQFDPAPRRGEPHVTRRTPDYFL

Molecule: COC[C@@H]([C@H](O)[C@H](O)C(=O)NCC[C@H](C)c1nc(/C=C/C[C@@H]2O[C@]3(C[C@@H](O)[C@@H]2C)O[C@H]([C@H](C[C@H](O)[C@H](C)[C@H](O)[C@H](C)/C=C(C)/C(C)=C/C=C/C(C)=C\C#N)OC)[C@H](OP(=O)(O)O)C3(C)C)co1)N(C)C [Calyculin A, reference compound]
- IC50 [1]: 0.49 nM

Molecule: O=C(c1cc(O)c(O)c([N+](=O)[O-])c1)c1ccccc1F [Ro 41-0960, reference compound]
- IC50 [2]: 28 nM

Molecule: nerve growth factor [NGF]
- TrkA phosphorylation, Western blotting (TrkA): responded
- Akt and Erk phosphorylation [3]: promoted Akt and Erk phosphorylation
- neurite initiation or extension ([4]; CGRP-negative neurons, ARTN 30 ng/ml, BT13 100 ng/ml): no effect
- neurite initiation ([4]; CGRP-positive neurons, ARTN 30 ng/ml, BT13 100 ng/ml, overnight): significantly increased
- neurite elongation, root number, mean difference ([4]; CGRP-positive neurons, vs control): 3 ± 1
- neurite elongation, branch points, mean difference [4, 6]: 48 ± 3
- neurite elongation, maximum length, mean difference [4, 6]: 99 ± 8 μm
- neurite elongation, total length, mean difference [4, 6]: 1,421 ± 108 μm
- proportion of DRG neurons that expressed CGRP in culture ([4]; ARTN 30 ng/ml, BT13 100 ng/ml): did not alter

B1: brain-derived neurotrophic factor (protein, UniProt P23560 19-247, looked up)
Neurotrophic factor BDNF …: APMKEANIRGQGGLAYPGVRTHGTLESVNGPKAGSRGLTSLADTFEHVIEELLDEDQKVRPNEENNKDADLYTSRVMLSSQVPLEPPLLFLLEEYKNYLDAANMSMRVRRHSDPARRGELSVCDSISEWVTAADKKTAVDMSGGTVTVLEKVPVSKGQLKQYFYETKCNPMGYTKEGCRGIDKRHWNSQCRTTQSYVRALTMDSKKRIGWRFIRIDTSCVCTLTIKRGR
notes: neurotrophin, natural ligand of TrkB
- TrkB phosphorylation, Western blotting (TrkB): responded
- Akt and Erk phosphorylation [5]: promoted Akt and Erk phosphorylation
